Experimental data reported in PubChem BioAssay AID1919017 (Molecular Pharmacology Branch, DTP, NCI, 2023).
Values joined by “and” are separate entries in the source; they are usually repeats but may differ in a detail not shown here. Identical values can stand only once.

Tested on: SW1271 complex spheroids with HUVEC/MSC, growth, % test/control
Assay: Anticancer human tumor SW1271 cell line growth inhibition [AhR];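 further: spheroids exposed to agents for 7 days before readout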
Settings: for viability, T/C: stronger effect = lower value; active means viability on the fitted dose curve at most 10% of control; inactive means the rest
Summary of the method: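 Spheroids combined tumor cells with HUVEC endothelial cells and human MSCs as stroma. AhR antagonists were paired with standard or investigational drugs, each dosed in half-log steps down from near clinical Cmax, or from 10 microM where Cmax was unknown.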

[1] = curve of first compound, second compound 0.1 µM
[2] = curve of first compound, second compound 0.316 µM
[3] = curve of first compound, second compound 1 µM
[4] = curve of first compound, second compound 3.16 µM
[5] = curve of first compound, second compound 10 µM
[6] = second compound 0.1 µM, first compound 0.0316 µM
[7] = second compound 0.1 µM, first compound 0.1 µM
[8] = second compound 0.1 µM, first compound 0.316 µM
[9] = second compound 0.1 µM, first compound 1 µM
[10] = second compound 0.1 µM, first compound 3.16 µM
[11] = second compound 0.1 µM, first compound 10 µM
[12] = second compound 0.316 µM, first compound 0.0316 µM
[13] = second compound 0.316 µM, first compound 0.1 µM
[14] = second compound 0.316 µM, first compound 0.316 µM
[15] = second compound 0.316 µM, first compound 1 µM
[16] = second compound 0.316 µM, first compound 3.16 µM
[17] = second compound 0.316 µM, first compound 10 µM
[18] = second compound 1 µM, first compound 0.0316 µM
[19] = second compound 1 µM, first compound 0.1 µM
[20] = second compound 1 µM, first compound 0.316 µM
[21] = second compound 1 µM, first compound 1 µM
[22] = second compound 1 µM, first compound 3.16 µM
[23] = second compound 1 µM, first compound 10 µM
[24] = second compound 3.16 µM, first compound 0.0316 µM
[25] = second compound 3.16 µM, first compound 0.1 µM
[26] = second compound 3.16 µM, first compound 0.316 µM
[27] = second compound 3.16 µM, first compound 1 µM
[28] = second compound 3.16 µM, first compound 3.16 µM
[29] = second compound 3.16 µM, first compound 10 µM
[30] = second compound 10 µM, first compound 0.0316 µM
[31] = second compound 10 µM, first compound 0.1 µM
[32] = second compound 10 µM, first compound 0.316 µM
[33] = second compound 10 µM, first compound 1 µM
[34] = second compound 10 µM, first compound 3.16 µM
[35] = second compound 10 µM, first compound 10 µM
[36] = second compound 0.1 µM, first compound 0.00316 µM
[37] = second compound 0.1 µM, first compound 0.01 µM
[38] = second compound 0.316 µM, first compound 0.00316 µM
[39] = second compound 0.316 µM, first compound 0.01 µM
[40] = second compound 1 µM, first compound 0.00316 µM
[41] = second compound 1 µM, first compound 0.01 µM
[42] = second compound 3.16 µM, first compound 0.00316 µM
[43] = second compound 3.16 µM, first compound 0.01 µM
[44] = second compound 10 µM, first compound 0.00316 µM
[45] = second compound 10 µM, first compound 0.01 µM

O=C(C=Cc1cccc(S(=O)(=O)Nc2ccccc2)c1)NO + Cc1ccccc1N=Nc1ccc(NC(=O)c2ccnn2C)c(C)c1
1430 nM: IC50 [2]
1550 nM: IC50 [4]
763 nM: IC50 [3]
941 nM: IC50 [1]
inactive: viability, T/C [6] 86% | viability, T/C [7] 87.1% | viability, T/C [8] 61.9% | viability, T/C [9] 54.3% | viability, T/C [10] 26.5% | viability, T/C [11] 17.8% | viability, T/C [12] 84.3% | viability, T/C [13] 91% | viability, T/C [14] 64.6% | viability, T/C [15] 59.8% | viability, T/C [16] 35.5% | viability, T/C [17] 18.9% | viability, T/C [18] 105% | viability, T/C [19] 98.6% | viability, T/C [20] 68.5% | viability, T/C [21] 48.1% | viability, T/C [22] 23.1% | viability, T/C [23] 28.4% | viability, T/C [24] 84.4% | viability, T/C [25] 94% | viability, T/C [26] 86.8% | viability, T/C [27] 57.5% | viability, T/C [28] 36.7% | viability, T/C [29] 22.3% | viability, T/C [30] 104% | viability, T/C [31] 71.2% | viability, T/C [32] 88.2% | viability, T/C [33] 57.6% | viability, T/C [34] 38.3% | viability, T/C [35] 26.1%
1860 nM: IC50 [5]

O=C(c1cc(Cc2n[nH]c(=O)c3ccccc23)ccc1F)N1CCN(C(=O)C2CC2)CC1 + CC(CO)NC(=O)c1cc(-c2ccc(Cl)cc2)nn(-c2cnn(C)c2)c1=O
> 10000 nM: IC50 [1] | IC50 [2] | IC50 [3] | IC50 [4] | IC50 [5]
inactive: viability, T/C [6] 84.4% | viability, T/C [7] 95.4% | viability, T/C [8] 100% | viability, T/C [9] 82.1% | viability, T/C [10] 88.2% | viability, T/C [11] 78.8% | viability, T/C [12] 79.8% | viability, T/C [13] 77.9% | viability, T/C [14] 75.8% | viability, T/C [15] 81.8% | viability, T/C [16] 77.7% | viability, T/C [17] 75.8% | viability, T/C [18] 79.7% | viability, T/C [19] 99.7% | viability, T/C [20] 83.8% | viability, T/C [21] 67.8% | viability, T/C [22] 78% | viability, T/C [23] 103% | viability, T/C [24] 76.9% | viability, T/C [25] 79.3% | viability, T/C [26] 79.8% | viability, T/C [27] 92.2% | viability, T/C [28] 68.5% | viability, T/C [29] 82.5% | viability, T/C [30] 67.8% | viability, T/C [31] 67.3% | viability, T/C [32] 76.2% | viability, T/C [33] 81.7% | viability, T/C [34] 81.2% | viability, T/C [35] 60.6%

CCc1c2c(nc3ccc(O)cc13)-c1cc3c(c(=O)n1C2)COC(=O)[C@]3(O)CC
inactive: viability, T/C (compound 0.000949 µM) 78.1% and 88.3% and 86.2% | viability, T/C (compound 0.003 µM) 79.8% and 97.7% and 79% | viability, T/C (compound 0.00949 µM) 64.6% and 71.7% and 61.4% | viability, T/C (compound 0.03 µM) 67% and 58.3% and 59.9% | viability, T/C (compound 0.0949 µM) 55.6% and 56% and 60.6% | viability, T/C (compound 0.3 µM) 44.9% and 53.3% and 49.2%
177 nM and > 300 nM: IC50 (curve of compound)

Cn1ncnc1C1c2n[nH]c(=O)c3cc(F)cc(c23)NC1c1ccc(F)cc1 (configuration not stated) + CC(CO)NC(=O)c1cc(-c2ccc(Cl)cc2)nn(-c2cnn(C)c2)c1=O
inactive: viability, T/C (second compound 0.1 µM, first compound 0.000316 µM) 111% | viability, T/C (second compound 0.1 µM, first compound 0.001 µM) 104% | viability, T/C [36] 95.8% | viability, T/C [37] 98% | viability, T/C [6] 84% | viability, T/C [7] 107% | viability, T/C (second compound 0.316 µM, first compound 0.000316 µM) 84.1% | viability, T/C (second compound 0.316 µM, first compound 0.001 µM) 87.1% | viability, T/C [38] 104% | viability, T/C [39] 89% | viability, T/C [12] 85.2% | viability, T/C [13] 79.2% | viability, T/C (second compound 1 µM, first compound 0.000316 µM) 96.2% | viability, T/C (second compound 1 µM, first compound 0.001 µM) 101% | viability, T/C [40] 73.7% | viability, T/C [41] 81.2% | viability, T/C [18] 74.1% | viability, T/C [19] 103% | viability, T/C (second compound 3.16 µM, first compound 0.000316 µM) 79.7% | viability, T/C (second compound 3.16 µM, first compound 0.001 µM) 73% | viability, T/C [42] 71.4% | viability, T/C [43] 89.1% | viability, T/C [24] 84.5% | viability, T/C [25] 77.2% | viability, T/C (second compound 10 µM, first compound 0.000316 µM) 71.8% | viability, T/C (second compound 10 µM, first compound 0.001 µM) 74.6% | viability, T/C [44] 61.4% | viability, T/C [45] 89.4% | viability, T/C [30] 75.9% | viability, T/C [31] 76.1%
> 100 nM: IC50 [1] | IC50 [2] | IC50 [3] | IC50 [4] | IC50 [5]

Nc1ncn(C2CC(O)C(CO)O2)c(=O)n1 (configuration not stated) + Cc1cncc(-c2nc(NCCc3c[nH]c4ccccc34)c3ncn(C(C)C)c3n2)c1
> 1000 nM: IC50 [1] | IC50 [2] | IC50 [3] | IC50 [4]
307 nM: IC50 [5]
inactive: viability, T/C [36] 107% | viability, T/C [37] 123% | viability, T/C [6] 104% | viability, T/C [7] 87% | viability, T/C [8] 83.1% | viability, T/C [9] 83.8% | viability, T/C [38] 105% | viability, T/C [39] 92.6% | viability, T/C [12] 111% | viability, T/C [13] 83.4% | viability, T/C [14] 76.3% | viability, T/C [15] 95.1% | viability, T/C [40] 88.1% | viability, T/C [41] 90.5% | viability, T/C [18] 107% | viability, T/C [19] 77.3% | viability, T/C [20] 111% | viability, T/C [21] 84% | viability, T/C [42] 97.4% | viability, T/C [43] 103% | viability, T/C [24] 87.9% | viability, T/C [25] 104% | viability, T/C [26] 90% | viability, T/C [27] 110% | viability, T/C [44] 52.4% | viability, T/C [45] 54.8% | viability, T/C [30] 51% | viability, T/C [31] 53% | viability, T/C [32] 48.9% | viability, T/C [33] 47.5%
